{"source": "paper PMC3254106", "about": "(ACS medicinal chemistry letters, 2011)", "key": {"[1]": {"tested_on": "Pancreatic cancer cells (PSN-1)", "assay": "Cell cycle analysis, propidium iodide flow cytometry", "type": "cell-based", "conditions": "PSN-1, 30 nM, 24 hours"}, "panel of 75 kinases": {"tested_on": "panel of 75 kinases", "assay": "Kinase panel profiling at 200 nM", "conditions": "200 nM profiling"}, "Aurora": {"tested_on": "Aurora", "assay": "Aurora activity of analogues", "type": "biochemical"}, "AXL kinase": {"target": "T1, AXL kinase (Homo sapiens, UniProt P30530)", "T1 sequence (P30530 26-894)": "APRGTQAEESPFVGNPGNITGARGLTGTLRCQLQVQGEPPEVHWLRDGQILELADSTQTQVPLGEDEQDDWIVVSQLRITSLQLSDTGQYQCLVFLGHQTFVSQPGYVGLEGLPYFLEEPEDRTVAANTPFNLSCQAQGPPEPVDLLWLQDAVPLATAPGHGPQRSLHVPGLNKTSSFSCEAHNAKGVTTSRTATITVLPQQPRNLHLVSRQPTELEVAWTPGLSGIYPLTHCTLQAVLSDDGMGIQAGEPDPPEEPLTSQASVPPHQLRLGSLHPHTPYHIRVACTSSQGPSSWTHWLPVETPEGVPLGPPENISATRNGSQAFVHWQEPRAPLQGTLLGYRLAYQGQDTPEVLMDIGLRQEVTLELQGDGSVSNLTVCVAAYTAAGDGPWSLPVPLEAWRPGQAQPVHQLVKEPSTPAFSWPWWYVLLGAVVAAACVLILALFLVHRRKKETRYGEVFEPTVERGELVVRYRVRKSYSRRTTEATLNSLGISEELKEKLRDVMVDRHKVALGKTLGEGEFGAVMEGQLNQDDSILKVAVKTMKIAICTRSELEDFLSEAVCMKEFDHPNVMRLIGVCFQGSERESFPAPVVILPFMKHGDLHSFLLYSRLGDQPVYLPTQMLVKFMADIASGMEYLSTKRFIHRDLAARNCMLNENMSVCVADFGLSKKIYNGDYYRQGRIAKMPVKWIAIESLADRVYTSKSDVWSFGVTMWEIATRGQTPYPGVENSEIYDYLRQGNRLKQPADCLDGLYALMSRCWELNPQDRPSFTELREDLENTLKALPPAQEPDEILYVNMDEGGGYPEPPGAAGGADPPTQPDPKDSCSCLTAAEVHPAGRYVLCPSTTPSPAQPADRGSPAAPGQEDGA", "assay": "AXL kinase biochemical assay"}}, "data": [{"smiles": "CN1CCN(Cc2ccc(Nc3ncc(Cl)c(Nc4ccccc4S(=O)(=O)N(C)C)n3)cc2)CC1", "note": "[Compound 13]", "values": [{"measurement": "G2/M (4N) population of cells", "setting": "[1]", "result": "significant increase"}, {"measurement": "cells with ≥4N DNA (8N peak, endoreduplication)", "setting": "[1]", "result": "accumulation of cells with ≥4N DNA"}, {"measurement": "activity against MER, TYRO3, Aurora A and B, JAK2, ALK, ABL1 and CHEK1", "setting": "panel of 75 kinases", "result": "strong activity"}]}, {"smiles": "CN1CCN(Cc2ccc(Nc3ncc(Cl)c(-c4ccc(F)cc4S(=O)(=O)N4CCCC4)n3)cc2)CC1", "note": "[Compound 27]", "values": [{"measurement": "Aurora activity", "setting": "Aurora", "result": "strong aurora activity"}]}, {"smiles": "CN1CCN(Cc2ccc(Nc3ncc(Cl)c(-c4ccc(F)cc4S(=O)(=O)N(C)C)n3)cc2)CC1", "note": "[Compound 26]", "values": [{"measurement": "Aurora activity", "setting": "Aurora", "result": "strong aurora activity"}]}, {"smiles": "CN1CCN(c2ccc(Nc3nc(-c4ccc(F)c(Cl)c4)cc(-c4ccc[nH]4)n3)cc2F)CC1", "note": "[Compound 1]", "values": [{"measurement": "IC50", "setting": "AXL kinase", "result": 33, "unit": "µM"}]}, {"smiles": "CN1CCN(c2ccc(Nc3nc(-c4ccc(F)c(Cl)c4)cc(-c4ccc(F)c(Cl)c4)n3)cc2F)CC1", "note": "[Compound 2]", "values": [{"measurement": "IC50", "setting": "AXL kinase", "result": 47, "unit": "µM"}]}, {"smiles": "CN1CCN(Cc2ccc(Nc3ncc(F)c(-c4ccc(F)cc4S(=O)(=O)N4CCCC4)n3)cc2)CC1", "note": "[Compound 16]", "values": [{"measurement": "Aurora activity", "setting": "Aurora", "result": "strong aurora activity"}]}, {"smiles": "Cc1cnc(Nc2ccc(CN3CCN(C)CC3)cc2)nc1-c1ccc(F)cc1S(=O)(=O)N1CCCC1", "note": "[Compound 15]", "values": [{"measurement": "Aurora activity", "setting": "Aurora", "result": "strong aurora activity"}]}]}
